For the assay, the target named is NAT (N-acetyltransferase). Kind of assay: Kd measurement (Fig. S8, method not shown); fluorescence titration and 1H NMR of acetylation by NAT.

By Kd is commonly meant the concentration at which binding is half-saturated. High values mean weaker binding, low ones tighter binding. `COc1ccc2c(c1)c(CC(=O)NCCCCN1C(=O)c3cccc4cc(N)cc(c34)C1=O)c(C)n2C(=O)c1ccc(Cl)cc1` [3IAN4] returned a Kd of 2230 nM.

(Values after paper PMC7480271, “A molecular-logic gate for COX-2 and NAT based on conformational and structural changes: visualizing the progression of liver disease” (Chemical Science, 2020).)
